According to patent US8519184B2, “Synthesis of rare earth metal extractant” (Shin-Etsu Chemical Co., Ltd., priority 2010, dated 2013):
Converted amounts (≈) assume the structure as drawn.

Assays:
[1] = Extraction/separation test (solvent extraction, Nd/Pr); details: 20° C.
Procedure: An extraction/separation test was performed. […] The reaction product solution was diluted with hexane to form an organic solution having a DODGAA concentration of 0.3 mol/L, which might become an organic phase.
An extraction/separation test was performed. The concentration of DODGAA in the reaction product solution was computed from the amounts of reactants and synthesis medium. The reaction product solution was diluted with hexane to form an organic solution having a DODGAA concentration of 0.3 mol/L, which might become an organic phase. […]
An aqueous solution containing mixed rare earth metals was prepared by dissolving praseodymium chloride and neodymium chloride in water in a molar ratio Pr:Nd of 1:1 and a concentration (mol/L) of Pr+Nd as shown in Table 4 to form an aqueous solution which might become an aqueous phase. […] The concentrations of praseodymium and neodymium in the aqueous phase and the back-extracted aqueous hydrochloric acid solution were measured by an ICP atomic emission spectrometer ICP-7500 (Shimadzu Corp.).

[2] = Extractant state of reaction product; format: physicochemical; details: Table 2; reaction product at varied B/A (dioctylamine/diglycolic anhydride)
Procedure: An amount (designated A in Table 2) of diglycolic anhydride was suspended in 40 mL of hexane. Separately, an amount (designated B in Table 2) of dioctylamine was dissolved in 10 mL of hexane. With stirring, the dioctylamine solution was added dropwise to the diglycolic anhydride suspension. Stirring was continued at room temperature until it was confirmed that the solution became clear as a result of reaction of diglycolic anhydride. The reaction product was obtained in hexane solution. Table 2 also reports a ratio B/A that is a ratio of the amount (B mmol) of dioctylamine to the amount (A mmol) of diglycolic anhydride.
An aqueous solution containing mixed rare earth metals was prepared by dissolving praseodymium chloride and neodymium chloride in water in a molar ratio Pr:Nd of 1:1 and a concentration of 0.1 mol/L of Pr+Nd to form an aqueous solution, which might become an aqueous phase. A separatory funnel was charged with 100 mL of the organic solution and 100 mL of the aqueous solution and shaken at 20° C. for about 20 minutes to effect extraction. After equilibrium was reached, the liquid was allowed to separate into organic and aqueous phases. A separatory funnel was charged with 100 mL of the thus separated organic phase and 100 mL of 5N hydrochloric acid and shaken at 20° C. for about 20 minutes whereby the rare earth element once extracted into the organic phase was back-extracted into the aqueous hydrochloric acid solution. The concentrations of praseodymium and neodymium in the aqueous phase and the back-extracted aqueous hydrochloric acid solution were measured by an ICP atomic emission spectrometer ICP-7500 (Shimadzu Corp.).

[3] = cited from earlier work
[4] = Table 1, DODGAA 0.3 mol/L in hexane organic phase, Pr+Nd 0.1 mol/L aqueous, about 20 minutes

Compound | Extractant state [2] | other results
CCCCCCCCN(CCCCCCCC)C(=O)COCC(=O)O [Comparative Example 1, N,N-dioctyl-3-oxapentane-1,5-amic acid] |  | Nd/Pr separation factor [1, 4]: satisfactory
CCCCCCCCN(CCCCCCCC)C(=O)COCC(=O)O [Example 3, N,N-dioctyl-3-oxapentane-1,5-amic acid] | liquid | Nd/Pr separation factor ([1]; Table 2, varied B/A, DODGAA 0.3 mol/L in hexane, Pr+Nd 0.1 mol/L): satisfactory
CCCCCCCCN(CCCCCCCC)C(=O)COCC(=O)O [Example 2, N,N-dioctyl-3-oxapentane-1,5-amic acid] | liquid | 
CCCCCCCCN(CCCCCCCC)C(=O)COCC(=O)O [DODGAA, N,N-dioctyl-3-oxapentane-1,5-amic acid] |  | solubility in water [3]: 6.2 µM (≈ 2.22 µg/mL)
CCCCCCCCN(CCCCCCCC)C(=O)COCC(=O)O [Example 1, N,N-dioctyl-3-oxapentane-1,5-amic acid] |  | Nd/Pr separation factor [1, 4]: satisfactory
CCCCCCCCN(CCCCCCCC)C(=O)COCC(=O)O [Comparative Example 2, N,N-dioctyl-3-oxapentane-1,5-amic acid] | liquid | 
CCCCCCCCN(CCCCCCCC)C(=O)COCC(=O)O [Example 4, N,N-dioctyl-3-oxapentane-1,5-amic acid] | liquid | 
CCCCCCCCN(CCCCCCCC)C(=O)COCC(=O)O [Example 5, N,N-dioctyl-3-oxapentane-1,5-amic acid] | solid | 
